Reference: patent US8846709B2, “7-(3,5-dimethyl-4-isoxazolyl)-8-(methyloxy)-1H-imidazo[4,5-C]quinoline derivatives” (GlaxoSmithKline LLC, priority 2011, dated 2014)

Test system: LPS induced IL-6 secretion from whole blood
Assay: Measurement of LPS Induced IL-6 Secretion from Whole Blood
Type: cell-based
Conditions: IL-6 in whole blood, LPS 200 ng/ml, 24 hours
Protocol: Activation of monocytic cells by agonists of toll-like receptors such as bacterial lipopolysaccharide (LPS) results in production of key inflammatory mediators including IL-6. Such pathways are widely considered to be central to the pathophysiology of a range of auto-immune and inflammatory disorders.
Compounds to be tested are diluted to give a range of appropriate concentrations of which 1 μl of the diluted stocks is added to a 96 well plate. Following addition of whole blood (130 μl) the plates are incubated at 37 degrees (5% CO2) for 30 min before the addition of 10 μl of 2.8 ug/ml LPS, diluted in complete RPMI 1640 (final concentration=200 ng/ml), to give a total volume of 140 ul per well. After further incubation for 24 hours at 37 degrees, 140 μl of PBS are added to each well. The plates are sealed, shaken for 10 minutes and then centrifuged (2500 rpm×10 min). 100 μl of the supernatant are removed and IL-6 levels assayed by immunoassay (typically by MesoScale Discovery technology) either immediately or following storage at −20 degrees. Concentration response curves for each compound was generated from the data and an IC50 value was calculated

Row | IC50 [µM] | Compound
1 | > 3.16 | COc1cc2c(cc1-c1c(C)noc1C)ncc1nc(NCCO)n(CC3CCOCC3)c12 [Example 2, 2-{[7-(3,5-dimethyl-4-isoxazolyl)-8-(methyloxy)-1-(tetrahydro-2H-pyran-4-ylmethyl)-1H-imidazo[4,5-c]quinolin-2-yl]amino}ethanol]
2 | > 3.16 | COc1cc2c(cc1-c1c(C)noc1C)ncc1nc(NCCN)n(CC3CCOCC3)c12 [Example 8, N1-(7-(3,5-dimethylisoxazol-4-yl)-8-methoxy-1-((tetrahydro-2H-pyran-4-yl)methyl)-1H-imidazo[4,5-c]quinolin-2-yl)ethane-1,2-diamine]
